Reference: ChEMBL document CHEMBL1201862, “PubChem BioAssay data set” (2004)
The source made the active and inactive calls.

Columns and labels:
[1] = biological target: T1, Polyadenylate-binding protein 1 (Homo sapiens, UniProt P11940); test: PABP1 MLLE–PAM2 interaction inhibitors, dose response, miRNA deadenylation inhibitor project, biochemical, fluorescence polarization, Cy5-PAM2 peptide, secondary (AID 602260); format: functional; conditions: read-out: IC50_Mean
[2] = biological target: T1, Polyadenylate-binding protein 1; test: PABP1 MLLE–PAM2 binding inhibitor potency, dose response, biochemical, fluorescence polarization, FITC-PAM2 peptide (AID 602259); format: functional; conditions: read-out: IC50_Mean
[3] = Luminescence Cell-Based Dose Retest to Confirm Inhibitors of Cancer Stem Cells. [Related pubchem assays (depositor defined):AID2717, AID2721]; format: functional; conditions: Homo sapiens
[4] = biological target: T2, Replicative DNA helicase DnaB (Mycobacterium tuberculosis, UniProt P9WMR3); test: DnaB intein splicing inhibitors, dose response, biochemical, cell-free fluorescence (AID 449749); format: functional
T2 sequence (P9WMR3 whole entry): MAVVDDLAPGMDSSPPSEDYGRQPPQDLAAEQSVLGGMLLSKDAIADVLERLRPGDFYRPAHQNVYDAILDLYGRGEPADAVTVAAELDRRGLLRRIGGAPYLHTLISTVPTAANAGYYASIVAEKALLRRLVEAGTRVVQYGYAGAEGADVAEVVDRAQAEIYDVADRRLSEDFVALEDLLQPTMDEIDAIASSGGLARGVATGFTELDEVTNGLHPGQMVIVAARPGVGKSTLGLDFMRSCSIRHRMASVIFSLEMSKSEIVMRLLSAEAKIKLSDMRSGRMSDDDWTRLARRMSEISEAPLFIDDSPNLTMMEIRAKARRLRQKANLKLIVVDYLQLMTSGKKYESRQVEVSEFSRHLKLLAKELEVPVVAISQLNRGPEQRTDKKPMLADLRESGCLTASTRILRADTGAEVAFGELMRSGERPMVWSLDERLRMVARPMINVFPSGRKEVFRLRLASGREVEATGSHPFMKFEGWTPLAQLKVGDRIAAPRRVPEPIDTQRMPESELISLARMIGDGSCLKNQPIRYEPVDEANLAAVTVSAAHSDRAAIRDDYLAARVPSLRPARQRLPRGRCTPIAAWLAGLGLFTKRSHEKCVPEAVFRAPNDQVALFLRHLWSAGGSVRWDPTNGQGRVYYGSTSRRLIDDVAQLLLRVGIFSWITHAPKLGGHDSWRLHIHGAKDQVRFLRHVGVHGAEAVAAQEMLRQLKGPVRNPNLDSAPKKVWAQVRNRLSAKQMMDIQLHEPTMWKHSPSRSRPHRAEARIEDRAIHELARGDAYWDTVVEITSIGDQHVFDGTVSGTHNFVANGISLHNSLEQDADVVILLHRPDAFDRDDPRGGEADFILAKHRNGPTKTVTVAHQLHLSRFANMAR

[5] = biological target: T3, Protein RecA (Mycobacterium tuberculosis, UniProt P9WHJ3); test: Fluorescence Cell-Free Homogeneous Dose Retest to Identify Inhibitors of RecA-Intein Splicing Activity. [Related pubchem assays (depositor defined):AID2097, AID2223, AID489010, AID492950]; format: functional
T3 sequence (P9WHJ3 whole entry): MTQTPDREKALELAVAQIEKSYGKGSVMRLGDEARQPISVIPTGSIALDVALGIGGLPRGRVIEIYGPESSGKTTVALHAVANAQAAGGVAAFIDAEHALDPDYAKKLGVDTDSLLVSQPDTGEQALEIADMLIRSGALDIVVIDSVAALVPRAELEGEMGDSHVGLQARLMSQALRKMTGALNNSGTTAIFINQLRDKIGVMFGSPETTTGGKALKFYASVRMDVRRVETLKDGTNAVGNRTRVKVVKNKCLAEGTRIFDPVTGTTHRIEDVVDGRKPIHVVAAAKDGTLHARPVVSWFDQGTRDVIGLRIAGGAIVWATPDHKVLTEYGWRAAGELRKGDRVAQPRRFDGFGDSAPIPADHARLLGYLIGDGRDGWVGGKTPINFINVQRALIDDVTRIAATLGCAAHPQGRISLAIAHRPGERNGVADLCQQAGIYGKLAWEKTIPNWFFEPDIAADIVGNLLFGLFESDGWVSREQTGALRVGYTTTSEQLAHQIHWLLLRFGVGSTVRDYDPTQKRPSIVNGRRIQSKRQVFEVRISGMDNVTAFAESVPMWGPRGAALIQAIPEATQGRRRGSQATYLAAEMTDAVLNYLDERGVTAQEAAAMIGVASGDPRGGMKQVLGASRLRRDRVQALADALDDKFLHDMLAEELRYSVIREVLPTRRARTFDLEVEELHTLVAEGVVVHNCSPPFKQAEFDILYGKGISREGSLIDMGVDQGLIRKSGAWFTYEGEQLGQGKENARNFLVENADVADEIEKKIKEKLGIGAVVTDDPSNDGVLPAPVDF

[6] = biological target: T4, Heat shock factor protein 1 (Mus musculus, UniProt P38532); test: inhibition of MG132-induced HSE-luciferase signal, confirmation, cell-based, NIH3T3, luminescence, dose retest (AID 2382); format: functional;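 also: NIH3T3 fibroblasts with HSF1-driven luciferase reporter stressed by proteasome inhibitor MG132; luminescence from HSF1-driven luciferase expression after 8 hours of MG132 stress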
T4 sequence (P38532 whole entry): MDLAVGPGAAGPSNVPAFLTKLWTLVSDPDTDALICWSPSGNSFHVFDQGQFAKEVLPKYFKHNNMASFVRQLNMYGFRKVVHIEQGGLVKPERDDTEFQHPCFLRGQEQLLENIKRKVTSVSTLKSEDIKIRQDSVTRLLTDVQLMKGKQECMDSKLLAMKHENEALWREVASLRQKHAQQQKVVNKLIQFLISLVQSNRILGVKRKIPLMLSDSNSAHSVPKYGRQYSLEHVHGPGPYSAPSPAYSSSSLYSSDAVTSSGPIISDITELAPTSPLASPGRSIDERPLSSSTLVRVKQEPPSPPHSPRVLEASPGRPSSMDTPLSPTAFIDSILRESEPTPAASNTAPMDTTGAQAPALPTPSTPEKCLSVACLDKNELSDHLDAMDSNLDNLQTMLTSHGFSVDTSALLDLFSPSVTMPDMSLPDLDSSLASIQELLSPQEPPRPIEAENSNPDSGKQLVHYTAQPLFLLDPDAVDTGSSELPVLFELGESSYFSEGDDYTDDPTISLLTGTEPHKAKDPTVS

[7] = biological target: T5, RNA-binding protein pos-1 (Caenorhabditis elegans, UniProt G5EF15); test: inhibitors of POS-1/mex-3 RNA binding, dose response, biochemical, fluorescence polarization (AID 1964);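 also: purified POS-1 fused to maltose binding protein made in E. coli; potency of compounds blocking POS-1 binding to fluorescent RNA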
T5 sequence (G5EF15 whole entry): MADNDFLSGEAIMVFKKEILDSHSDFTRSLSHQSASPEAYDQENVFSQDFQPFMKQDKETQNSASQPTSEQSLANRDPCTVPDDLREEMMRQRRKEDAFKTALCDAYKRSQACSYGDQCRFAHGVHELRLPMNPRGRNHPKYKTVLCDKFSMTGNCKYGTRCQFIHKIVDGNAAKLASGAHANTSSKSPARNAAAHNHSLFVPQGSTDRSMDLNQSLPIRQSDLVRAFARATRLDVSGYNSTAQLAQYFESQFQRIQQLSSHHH

[8] = biological target: T6, Zinc finger protein mex-5 (Caenorhabditis elegans, UniProt Q9XUB2); test: MEX-5/TCR-2 RNA interaction inhibitors, dose response, biochemical, C. elegans, fluorescence polarization (AID 1960)
T6 sequence (Q9XUB2 whole entry): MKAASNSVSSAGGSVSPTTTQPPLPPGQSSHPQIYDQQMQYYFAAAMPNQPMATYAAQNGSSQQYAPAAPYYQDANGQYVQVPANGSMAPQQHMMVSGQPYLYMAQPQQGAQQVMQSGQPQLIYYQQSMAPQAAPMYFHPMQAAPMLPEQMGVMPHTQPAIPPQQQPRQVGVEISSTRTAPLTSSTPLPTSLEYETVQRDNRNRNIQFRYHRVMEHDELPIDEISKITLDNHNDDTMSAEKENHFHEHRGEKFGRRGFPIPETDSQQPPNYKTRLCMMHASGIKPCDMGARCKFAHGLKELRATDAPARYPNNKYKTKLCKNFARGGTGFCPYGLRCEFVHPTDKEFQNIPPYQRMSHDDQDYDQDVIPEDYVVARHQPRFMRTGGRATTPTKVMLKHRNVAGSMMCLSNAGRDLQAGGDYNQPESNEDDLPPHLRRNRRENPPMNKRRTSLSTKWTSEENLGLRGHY

T1 sequence (P11940 whole entry): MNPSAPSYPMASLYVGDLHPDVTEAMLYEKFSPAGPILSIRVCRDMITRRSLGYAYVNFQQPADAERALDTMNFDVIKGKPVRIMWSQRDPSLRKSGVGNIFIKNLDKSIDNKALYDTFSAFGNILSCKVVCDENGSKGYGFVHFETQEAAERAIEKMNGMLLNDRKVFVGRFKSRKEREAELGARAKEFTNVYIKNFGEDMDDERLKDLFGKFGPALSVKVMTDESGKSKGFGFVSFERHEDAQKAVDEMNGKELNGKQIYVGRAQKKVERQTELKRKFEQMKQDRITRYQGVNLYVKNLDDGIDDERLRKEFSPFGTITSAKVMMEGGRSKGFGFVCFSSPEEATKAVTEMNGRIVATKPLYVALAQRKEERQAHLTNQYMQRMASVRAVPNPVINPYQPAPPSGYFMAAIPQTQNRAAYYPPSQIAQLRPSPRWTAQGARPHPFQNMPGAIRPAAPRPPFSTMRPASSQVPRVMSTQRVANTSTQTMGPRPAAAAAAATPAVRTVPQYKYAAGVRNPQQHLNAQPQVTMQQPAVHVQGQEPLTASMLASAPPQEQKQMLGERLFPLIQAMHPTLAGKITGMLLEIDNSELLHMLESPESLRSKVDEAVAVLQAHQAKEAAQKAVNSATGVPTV

## Cn1c(=O)c2c(O)cc(N)nc2n(C)c1=O
[1]
  IC50: > 66 µM (inactive)
[2]
  IC50: 56.2 µM (inactive)

## C#CCOCCOCCOCCNc1nc(N2CCN(C(=O)CCCCCCCCCCNC(=O)Cn3cc(C[C@@H](C)O)nn3)CC2)nc(N2CCN(C(=O)CCCCCCCCCCNC(=O)[C@@H]([C@H](C)O)n3cc(C)nn3)CC2)n1
[3]
  AC50: 4.67 µM (active)

## N#CC1=C(N)Oc2[nH]nc(-c3cccs3)c2C1c1cccs1 (stereo not given)
[4]
  AC50: 2.63 µM (active)
[5]
  EC50: 2.02 µM (active)

## COCCOC(=O)C1=C(C)N=C2SCCC(=O)N2C1c1ccc(OC(=O)c2ccco2)cc1 (stereo not given)
[4]
  AC50: 19.8 µM (active)
[5]
  EC50: 14 µM (active)

## CCCCOc1ccc(C(=O)Nc2ccc3c(c2)OCO3)cc1
[3]
  AC50: 1.46 µM (active)

## Cc1[nH]n(-c2ccc([N+](=O)[O-])cc2)c(=O)c1/C=N/CCN1CCN(C(=O)C(C)C)CC1
[6]
  EC50: > 195 µM (not active)
[3]
  AC50: 4.61 µM (active)

## CN(C)C(=O)/C(C#N)=C\c1cc(Br)c(Sc2ccc(Cl)cc2)o1
[3]
  AC50: 4.82 µM (active)

## O=C(Nc1ccc(Cl)cc1)C1c2cccc[n+]2CC(=O)N1Cc1ccc2c(c1)OCO2 (stereo not given)
[4]
  AC50: > 380 µM (inactive)
[5]
  EC50: 13.3 µM (active)

## Cc1cccc(-n2ncc3c(N4CCCc5ccccc54)ncnc32)c1
[3]
  AC50: 7.31 µM (active)

## COc1ccc(NC(=O)C2Cc3ccccc3CN2C(=O)c2ccccc2)cn1 (stereo not given)
[7]
  EC50: 25.1 µM (active)
[8]
  EC50: > 300 µM (inconclusive)
[1]
  IC50: > 66 µM (inactive)
[2]
  IC50: 13.1 µM (active)

## CC1(C)CC2=C(CO1)C(S)=NC(c1ccccc1)N2CC1CCCO1 (stereo not given)
[1]
  IC50: > 66 µM (inactive)
[2]
  IC50: > 66 µM (inactive)

## Cc1ccc(Nc2cc(C)c3ccc(O)cc3n2)cc1C
[3]
  AC50: 4.45 µM (active)

## Cc1ccc(CN2CCSc3ccc(C(=O)NCc4ccco4)cc32)cc1
[3]
  AC50: 12.1 µM (active)

## COc1cc(NC(S)=Nc2ccc(N(C)C(C)=O)cc2)cc(OC)c1
[1]
  IC50: > 66 µM (inactive)
[2]
  IC50: > 66 µM (inactive)

## O=[N+]([O-])c1ccc(COc2ccc(-c3[nH]ncc3-c3ccccc3)c(O)c2)cc1
[3]
  AC50: 4.73 µM (active)
